# Measured values taken from ChEMBL document CHEMBL1140033 (J Med Chem, 2008).
# The source made the active and inactive calls. No cut-off for these calls is given here.
# Target: T1, Rhodopsin (Bos taurus, UniProt P02699)
# Assay: Inhibition of bovine retinal rod outer-segment photoactivated rhodopsin-transducer interaction by transducer release assay
# T1 sequence (P02699 whole entry): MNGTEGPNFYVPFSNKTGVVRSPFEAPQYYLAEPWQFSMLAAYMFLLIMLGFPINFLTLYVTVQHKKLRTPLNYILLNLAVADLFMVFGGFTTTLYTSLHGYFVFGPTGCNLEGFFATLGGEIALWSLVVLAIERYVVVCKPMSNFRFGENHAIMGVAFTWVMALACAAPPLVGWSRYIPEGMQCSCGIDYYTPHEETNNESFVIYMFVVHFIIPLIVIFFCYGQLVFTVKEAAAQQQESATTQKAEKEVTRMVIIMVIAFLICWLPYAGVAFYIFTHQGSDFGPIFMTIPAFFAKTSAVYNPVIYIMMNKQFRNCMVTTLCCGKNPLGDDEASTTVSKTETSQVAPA
row,IC50 [µM],Structure (SMILES)
1,180,C[C@H]1[C@H](C)CC[C@]2(C(=O)O)CC[C@]3(C)C(=CC[C@@H]4[C@@]5(C)C[C@@H](O)[C@H](O)[C@@](C)(CO)[C@@H]5[C@H](O)C[C@]43C)[C@H]12 [MADECASSIC ACID]

# Target: T1, Rhodopsin
# Assay: Binding affinity to photoactivated rhodopsin in bovine retinal rod outer-segment membranes assessed as induction of extra receptor MII state stabilization by UV/visible difference spectroscopy
row,EC50 [µM],Structure (SMILES)
1,120,C[C@H]1[C@H](C)CC[C@]2(C(=O)O)CC[C@]3(C)C(=CC[C@@H]4[C@@]5(C)C[C@@H](O)[C@H](O)[C@@](C)(CO)[C@@H]5[C@H](O)C[C@]43C)[C@H]12 [MADECASSIC ACID]

# Target: Rhodopsin (Bos taurus) (UniProt P02699)
# Assay: Binding affinity to photoactivated rhodopsin in bovine retinal rod outer-segment membranes assessed as induction of extra receptor MII state stabilization at 250 uM by UV/visible difference spectroscopy
# Rhodopsin (Bos taurus), sequence (P02699 whole entry): as above
row,Structure (SMILES),Activity
1,CC1(C)[C@@H](O)CC[C@]2(C)[C@H]3C(=O)C=C4[C@@H]5C[C@@](C)(C(=O)O)CC[C@]5(C)CC[C@@]4(C)[C@]3(C)CC[C@@H]12,Active
2,CC1(C)CC[C@]2(C(=O)O)CC[C@]3(C)C(=CC[C@@H]4[C@@]5(C)C[C@H](O)[C@H](O)[C@@](C)(C(=O)O)[C@@H]5CC[C@]43C)[C@@H]2C1,Active
3,C[C@]12CCC(=O)C=C1CC[C@@H]1[C@@H]2[C@@H](O)C[C@@]2(C)[C@H]1CC[C@]2(O)[C@@H](O)CO,Active
4,"CC1(C)[C@@H](O)CC[C@]2(C)[C@H]3C(=O)C=C4C5C[C@@](C)(C(=O)O)CC[C@]5(C)CC[C@@]4(C)[C@]3(C)CC[C@@H]12 (single isomer, unassigned)",Active
5,C[C@]12CC[C@H]3[C@@H](CCC4=CC(=O)CC[C@@]43C)[C@@H]1CC[C@@H]2CCOS(=O)(=O)c1ccc(Br)cc1,Active

# The remaining lines, values ahead:
row,Activity,Structure (SMILES)
1,Active,CC1(C)CC[C@]2(C(=O)O)CC[C@]3(C)C(=CC[C@@H]4[C@@]5(C)CC[C@H](O)C(C)(C)[C@@H]5CC[C@]43C)[C@@H]2C1
2,Active,C[C@H]1[C@H](C)CC[C@]2(C(=O)O)CC[C@]3(C)C(=CC[C@@H]4[C@@]5(C)CC[C@H](O)C(C)(C)[C@@H]5CC[C@]43C)[C@H]12
